For three compounds, IC50 results are on record in ChEMBL document CHEMBL3351395, “Podoimbricatin A, a cytotoxic diterpenoid with an unprecedented 6/6/5/6-fused tetracyclic ring system from the twigs and leaves of Podocarpus imbricatus” (Bioorg Med Chem Lett, 2014).

In one experiment the test system is A549. As to the kind of experiment: Antiproliferative activity against human A549 cells by MTT assay. The format is functional, cell-based. (Formazan colour is commonly taken as a measure of viable cells.)
Another experiment relates to NCI-H292. The experiment can be described thus: Antiproliferative activity against human NCI-H292 cells by MTT assay. It is filed as functional, cell-based.

In general, IC50 refers to the concentration needed to halve the response being measured. A high value points to lower potency. Regarding `CC1(C)CCC[C@]2(C)[C@H]3C[C@H]4C(CO)=CCO[C@@H]4[C@H]3C[C@H](O)[C@@H]12`, the IC50 turned out to be 25.2 µM with A549 and 19.1 µM in the experiment on NCI-H292.

Regarding `CCC(C)C1NC(=O)C(NC(=O)/C=C/c2ccccc2)C(C(C)C)Oc2ccc(cc2)/C=C/NC1=O` (stereo unspecified), the values for the IC50 in the experiment with A549 and in the experiment with NCI-H292 were 21.5 µM and 17.8 µM, respectively.

Consider `C=C1CC[C@@H]2[C@](C)(CCC[C@]2(C)C(=O)O)[C@H]1CC/C(C)=C/C(=O)O` [AGATHIC ACID], for which the IC50 in the experiment with A549 amounted to 47.8 µM; with NCI-H292, 20.3 µM.
